# Reference: US8377918B2 (ACC Therapeutics Inc, priority 2005, dated 2013)
# Test system: DU145 cells
# Assay: MTT cell proliferation assay, DU145 prostate cancer cells
# Assay type: cell-based, human
# Details: 24 h
# Experimental: FIG. 8. […] Prostate cancer cells PC-3 and DU145 were seeded in 96-well plates at 1×10^4 cells/well. […] The cell proliferation was assayed by culturing the cells for 24 h, then adding 10 μl of MTT reagent with incubation for 2 h. The reaction was stopped by adding 100 μl of solubilization solution. The relative cell proliferation was obtained by the reading at 590 nm which was recorded in a spectrophotometer, and normalized to the value of control.
# FIG. 17. […] A, the prostate cancer cells PC-3 and DU145; B, colon cancer cells Colo-205 and HCT-116; C, lung cancer cells A549 and H460 cells were plated at 1×10^4 cells per well in a 96 well plate in 100 μl of media.
# FIG. 19. […] A, prostate cancer cells PC-3; and B, DU145 cells were plated at 1×10^4 cells per well in a 96 well plate in 100 μl of media. […] Cell proliferation was examined by MTT assay.
# FIG. 21. […] A, the prostate cancer cells PC-3 and DU145; B and C, colon cancer cells Colo-205 and HCT-116 were plated at 1×10^4 cells per well in a 96 well plate in 100 μl of media a day before the treatment.
# FIG. 23. […] Cell proliferation was examined by MTT assay.
smiles,measurement,setting,value
"O=c1cc(-c2ccc(O)cc2)oc2cc(O)cc(O)c12 [apigenin, 4′,5,7,-trihydroxyflavone]",effect on sensitivity to etoposide treatment,"DU145, 15 μM apigenin",increased the sensitivity
same,effect on cell proliferation,"DU145, apigenin alone",inhibited
